Measured values reported in ChEMBL document CHEMBL5727277, “Heteroarylcarboxamide derivatives as plasma kallikrein inhibitors” (2019).
pIC50: −log10 of the molar value.

Target: Plasma kallikrein (Homo sapiens, UniProt P03952)
Test: Subsequently, PPACK II (Calbiochem) was added as a stop solution to achieve a final concentration of 1 μM and fluorescence was measured using an Envision Reader (PerkinElmer) with the wavelength excitation setting of 355 nm and the wavelength emission setting of 460 nm.Evaluation of the Inhibition of Human KLKB1 in Dextransulfat Activated Human PPP.Platelet poor plasma (PPP) obtained from human wholeblood, anticoagulated with EDTA, was activated with 12.5 μg/mL dextransulfate for 7 min on ice. The activated PPP was incubated with various concentrations of the test compound in assay buffer. […] Measurements were performed in a kinetic interval every 2nd minute for 16 min using a Spectramax M5 (Molecular Devices) with the following settings of the wavelength excitation of 350 nm and wavelength emission of 450 nm.

Plasma kallikrein, sequence (P03952 20-390 limits assumed): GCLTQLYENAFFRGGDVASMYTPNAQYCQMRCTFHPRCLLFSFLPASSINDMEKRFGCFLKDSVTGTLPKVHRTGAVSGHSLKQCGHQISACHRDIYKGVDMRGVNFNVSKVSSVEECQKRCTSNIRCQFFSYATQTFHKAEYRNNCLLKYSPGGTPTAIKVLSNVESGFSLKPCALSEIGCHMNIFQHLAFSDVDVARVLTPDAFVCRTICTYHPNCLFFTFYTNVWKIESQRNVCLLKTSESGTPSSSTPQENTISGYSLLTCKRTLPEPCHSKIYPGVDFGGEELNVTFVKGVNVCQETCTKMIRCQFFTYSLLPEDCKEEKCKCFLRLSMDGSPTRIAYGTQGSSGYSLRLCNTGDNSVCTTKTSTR
Plasma kallikrein, sequence (P03952 391-638 limits assumed): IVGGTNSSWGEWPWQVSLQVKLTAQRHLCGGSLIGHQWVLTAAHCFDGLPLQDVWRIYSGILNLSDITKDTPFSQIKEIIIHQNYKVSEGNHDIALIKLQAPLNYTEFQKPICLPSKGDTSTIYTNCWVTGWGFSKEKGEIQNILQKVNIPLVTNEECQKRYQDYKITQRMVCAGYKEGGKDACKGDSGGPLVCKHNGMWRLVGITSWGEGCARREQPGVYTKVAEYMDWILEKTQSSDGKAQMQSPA

Compound | pIC50
Cc1ccc2cc(Cn3cc(C(=O)N[C@H]4CCc5c4ccnc5N)nn3)ccc2n1 | 5.72
Cc1ccc2cc(Cn3cc(C(=O)N[C@@H]4CCc5c4ccnc5N)nn3)ccc2n1 | 7.44
